The text below walks through data of patent US20250304582A1, “Bicyclic Ureas As Kinase Inhibitors” (Incyte Corporation, priority 2024, published 2025).

Assay [1] concerns the target T1, pseudo-kinase domain (JH2, amino-acids 536-812) of human V617F mutant JAK2 (Homo sapiens, UniProt O60674, F794H/V617F/W659A/W777A).
T1 construct: JH2, amino-acids 536-812 with 3 surface mutations W659A, W777A, F794H; His (C); purchased BPS Bioscience 79498; host or cells: baculovirus expression system
Kind of assay: JAK2 LanthaScreen JH2-V617F Binding Assay. The note with it: 50 nM Fluorescent JAK2-JH2 Tracer, 1 hour at 25° C.; read-out: JH2 BIND V617F (Ex. C). Here is the method: Example C. JAK2 LanthaScreen JH2-V617F Binding Assay
(§1) JAK2 JH2-V617F binding assay utilizes pseudo-kinase domain (JH2, amino-acids 536-812 with 3 surface mutations W659A, W777A, F794H) of human V617F mutant JAK2 expressed as C-terminal His-Avi-tagged, biotinylated protein in a baculovirus expression system (BPS Bioscience, Catalog #79498). The assay was conducted in black 384-well polystyrene plates in a final reaction volume of 20 μL. JAK2 JH2-V617F (0.26 nM) was incubated with compounds (100 nL serially diluted in DMSO) in the presence of 50 nM Fluorescent JAK2-JH2 Tracer (MedChem Express Catalog #HY-102055) and 0.25 nM Streptavidin-Tb cryptate (Cisbio Part #610SATLB) in assay buffer (50 mM Tris, pH=7.5, 10 mM MgCl2, 0.01% Brij-35, 0.1% BSA, 1 mM EGTA, 5% Glycerol and 5 mM DTT). Non-specific binding was accessed in the presence of 2 mM ATP. After incubation for 1 hour at 25° C., LanthaScreen signals were read on a PHERAstar FS plate reader (BMG LABTECH). Data was analyzed with IDBS Xlfit and GraphPad Prism 5.0 software using a four parameter dose response curve to determine IC50 for each compound.

Assay [2] addresses T2, catalytic domain (JH1, amino acids 826-1132) of human JAK2 (Homo sapiens, UniProt O60674).
T2 construct: catalytic domain (JH1, amino acids 826-1132) of human JAK2; FLAG (N); purchased Carna Biosciences 08-445-20N; host or cells: baculovirus expression system
Description: JAK2 LanthaScreen JH1 Binding Assay. The note with it: 50 nM fluorescent JAK2-JH1 tracer, 2 hours at 25° C.; read-out: JH1 BIND (EX. A). How it is done: Example A. JAK2 LanthaScreen JH1 Binding Assay
JAK2 JH1 binding assay utilizes catalytic domain (JH1, amino acids 826-1132) of human JAK2 expressed as N-terminal FLAG-tagged, biotinylated protein in a baculovirus expression system (Carna Biosciences, Product #08-445-20N). The assay was conducted in black 384-well polystyrene plates in a final reaction volume of 20 μL. JAK2 JH1 (1.5 nM) was incubated with compounds (100 nL serially diluted in DMSO) in the presence of 50 nM fluorescent JAK2-JH1 tracer and 0.5 nM Streptavidin-Tb cryptate (Cisbio Part #610SATLB) in assay buffer (50 mM Tris, pH=7.5, 10 mM MgCl2, 0.01% Brij-35, 0.1% BSA, 1 mM EGTA, 5% Glycerol and 5 mM DTT). Non-specific binding was accessed in the presence of 2 mM ATP. After incubation for 2 hours at 25° C., LanthaScreen signals were read on a PHERAstar FS plate reader (BMG LABTECH). Data was analyzed with IDBS Xlfit and GraphPad Prism 5.0 software using a four parameter dose response curve to determine IC50 for each compound.
(In general: In TR-FRET formats the signal depends on donor and acceptor labels being close together.)

Assay [3] concerns the target T3, catalytic domain (JH1, amino acids 808-1132) of human JAK2 (Homo sapiens, UniProt O60674).
T3 construct: catalytic domain (JH1, amino acids 808-1132) of human JAK2; His (N); purchased BPS Bioscience 40450; host or cells: baculovirus expression system
Kind of assay: JAK2 HTRF Enzyme Activity Assay. It is filed as biochemical. The note with it: ATP (30 μM or 1 mM; not stated which for the table), 60 minutes at 25° C.; read-out: JAK2 HTRF (Ex. D). Here is the method: Example D. JAK2 HTRF Enzyme Activity Assay
JAK2 enzyme activity assays utilize catalytic domain (JH1, amino acids 808-1132) of human JAK2 expressed as N-terminal His-tagged protein in a baculovirus expression system (BPS Bioscience, Catalog #40450). The assays was conducted in black 384-well polystyrene plates in a final reaction volume of 20 μL. JAK2 (0.015 nM) was incubated with compounds (100 nL serially diluted in DMSO) in the presence of ATP (30 μM or 1 mM) and 500 nM Biotin-labeled EQEDEPEGDYFEWLE (SEQ ID NO.: 1) peptide (BioSource International, custom synthesis) in assay buffer (50 mM Tris, pH=7.5, 10 mM MgCl2, 0.01% Brij-35, 0.1% BSA, 1 mM EGTA, 5% Glycerol and 5 mM DTT) for 60 minutes at 25° C. The reactions were stopped by the addition of 10 μL of detection buffer (50 mM Tris, pH 7.8, 0.5 mg/mL BSA, 150 mM NaCl), supplemented with EDTA, LANCE Eu-W1024 anti-phosphotyrosine (PY20), (PerkinElmer, Catalog #AD0067) and Streptavidin SureLight APC (PerkinElmer Catalog #CR130-100), for a final concentration of 15 mM, 1.5 nM and 75 nM, respectively. HTRF signals were read after 30 minutes incubation at room temperature on a PHERAstar FS plate reader (BMG LABTECH). Data was analyzed with TDBS Xlfit and GraphPad Prism 5.0 software using a four parameter dose response curve to determine IC50 for each compound.

Assay [4] deals with T4, pseudo-kinase domain (JH2, amino-acids 536-812) of human Wild Type JAK2 (Homo sapiens, UniProt O60674, F794H/W659A/W777A).
T4 construct: JH2, amino-acids 536-812 with 3 surface mutations W659A, W777A, F794H; His (C); purchased BPS Bioscience 79463; host or cells: baculovirus expression system
T4 sequence (O60674 536-812 W659A/W777A/F794H): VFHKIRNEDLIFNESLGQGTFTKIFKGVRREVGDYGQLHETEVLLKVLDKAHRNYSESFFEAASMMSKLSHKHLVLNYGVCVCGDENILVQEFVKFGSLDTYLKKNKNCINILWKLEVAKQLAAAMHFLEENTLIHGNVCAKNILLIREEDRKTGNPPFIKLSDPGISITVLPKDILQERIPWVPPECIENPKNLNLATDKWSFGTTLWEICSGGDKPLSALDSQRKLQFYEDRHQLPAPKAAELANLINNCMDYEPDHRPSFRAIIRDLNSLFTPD
Description: JAK2 LanthaScreen JH2-WT Binding Assay. As to conditions: 50 nM Fluorescent JAK2-JH2 Tracer, 1 hour at 25° C.; read-out: JH2 BIND WT (EX. B). How it is done: Example B. JAK2 LanthaScreen JH2-WT Binding Assay
as §1, with “JH2-WT” for “JH2-V617F”, “Wild Type” for “V617F mutant”, “#79463).” for “#79498).”, “JH2-WT (0.145” for “JH2-V617F (0.26”

SMILES strings stand for the structures.

T1 sequence (O60674 536-812 V617F/W659A/W777A/F794H): as the sequence (O60674 536-812 W659A/W777A/F794H) above, with V82F counted along it
T2 sequence (O60674 826-1132): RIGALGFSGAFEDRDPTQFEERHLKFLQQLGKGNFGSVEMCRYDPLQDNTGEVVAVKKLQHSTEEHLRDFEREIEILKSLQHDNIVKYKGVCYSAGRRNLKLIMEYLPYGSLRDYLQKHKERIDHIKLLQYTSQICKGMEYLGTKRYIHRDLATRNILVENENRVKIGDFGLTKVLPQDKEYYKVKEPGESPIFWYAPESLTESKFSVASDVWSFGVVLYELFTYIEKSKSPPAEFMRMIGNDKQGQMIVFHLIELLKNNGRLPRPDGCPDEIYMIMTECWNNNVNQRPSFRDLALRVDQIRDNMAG
T3 sequence (O60674 808-1132): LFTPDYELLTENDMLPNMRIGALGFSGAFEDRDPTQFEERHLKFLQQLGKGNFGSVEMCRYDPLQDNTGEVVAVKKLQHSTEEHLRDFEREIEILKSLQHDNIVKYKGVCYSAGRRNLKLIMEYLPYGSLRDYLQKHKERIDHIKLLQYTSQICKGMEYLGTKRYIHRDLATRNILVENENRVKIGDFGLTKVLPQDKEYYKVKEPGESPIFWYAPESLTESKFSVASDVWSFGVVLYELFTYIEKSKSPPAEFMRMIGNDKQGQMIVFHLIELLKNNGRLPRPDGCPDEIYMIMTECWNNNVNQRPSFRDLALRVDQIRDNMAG

For `[2H]C([2H])([2H])n1c(=O)n([C@H]2C[C@H](NC(=O)OC3CC3)C2)c2cc(Nc3cc(C(C)(C)O)c4cccc(C(F)(F)F)c4n3)ncc21` [Example 16, Cyclopropyl ((trans)-3-(6-((4-(2-hydroxypropan-2-yl)-8-(trifluoromethyl)quinolin-2-yl)amino)-3-(methyl-d3)-2-oxo-2,3-dihydro-1H-imidazo[4,5-c]pyridin-1-yl)cyclobutyl)carbamate], the IC50 in assay [1] was ≤ 10 nM; in assay [2], 100 to 500 nM; in assay [3], 100 to 500 nM; in assay [4] it was ≤ 10 nM.
`[2H]C([2H])([2H])n1c(=O)n([C@@H]2CC[C@@H](NC(=O)OC)C2)c2cc(Nc3cc(C(C)(C)OC)c4cccc(C(F)(F)F)c4n3)ncc21` [Example 17, Methyl ((1R,3R)-3-(6-((4-(2-methoxypropan-2-yl)-8-(trifluoromethyl)quinolin-2-yl)amino)-3-(methyl-d3)-2-oxo-2,3-dihydro-1H-imidazo[4,5-c]pyridin-1-yl)cyclopentyl)carbamate]: the IC50 in assay [1] is ≤ 10 nM; in assay [2], > 1000 nM; in assay [3], > 1000 nM; in assay [4], ≤ 10 nM.
Consider `[2H]C([2H])([2H])n1c(=O)n([C@@H]2CC[C@@H](NC(=O)OC)C2)c2cc(Nc3cc(CC#N)c4cccc(C(F)(F)F)c4n3)ncc21` [Example 18, Methyl ((1R,3R)-3-(6-((4-(cyanomethyl)-8-(trifluoromethyl)quinolin-2-yl)amino)-3-(methyl-d3)-2-oxo-2,3-dihydro-1H-imidazo[4,5-c]pyridin-1-yl)cyclopentyl)carbamate], for which the IC50 in assay [1] is ≤ 10 nM; in assay [2] it was 500 to 1000 nM; in assay [3], 500 to 1000 nM; in assay [4] it was ≤ 10 nM.
Regarding `[2H]C([2H])([2H])n1c(=O)n([C@@H]2CC[C@@H](NC(=O)OC)C2)c2cc(Nc3cc(C(C)(C)C#N)c4cccc(C(F)(F)F)c4n3)ncc21` [Example 19, Methyl ((1R,3R)-3-(6-((4-(2-cyanopropan-2-yl)-8-(trifluoromethyl)quinolin-2-yl)amino)-3-(methyl-d3)-2-oxo-2,3-dihydro-1H-imidazo[4,5-c]pyridin-1-yl)cyclopentyl)carbamate], the IC50 is ≤ 10 nM in assay [1], > 1000 nM in assay [2], > 1000 nM in assay [3] and ≤ 10 nM in assay [4].
As to `[2H]C([2H])([2H])n1c(=O)n([C@@H]2CC[C@@H](NC(=O)OC)C2)c2cc(Nc3cc(C(C)(C)O)c4cc(Cl)cc(C(F)(F)F)c4n3)ncc21` [Example 20, Methyl ((1R,3R)-3-(6-((6-chloro-4-(2-hydroxypropan-2-yl)-8-(trifluoromethyl)quinolin-2-yl)amino)-3-(methyl-d3)-2-oxo-2,3-dihydro-1H-imidazo[4,5-c]pyridin-1-yl)cyclopentyl)carbamate], the IC50 in assay [1] is ≤ 10 nM; in assay [2] it was > 1000 nM; in assay [3], > 1000 nM; in assay [4] it was ≤ 10 nM.
On to `COC(=O)N[C@@H]1CC[C@@H](n2c(=O)n(C)c3cnc(Nc4cc(Cl)c5cccc(C(F)(F)F)c5n4)cc32)C1` [Example 21, Methyl ((1R,3R)-3-(6-((4-chloro-8-(trifluoromethyl)quinolin-2-yl)amino)-3-methyl-2-oxo-2,3-dihydro-1H-imidazo[4,5-c]pyridin-1-yl)cyclopentyl)carbamate], for which the IC50 is ≤ 10 nM in assay [1], > 1000 nM in assay [2], > 1000 nM in assay [3] and ≤ 10 nM in assay [4].
Take `[2H]C([2H])([2H])n1c(=O)n([C@@H]2CC[C@@H](NC(=O)OC)C2)c2cc(Nc3cc(NC(=O)COC)c4cccc(C(F)(F)F)c4n3)ncc21` [Example 22, Methyl ((1R,3R)-3-(6-((4-(2-methoxyacetamido)-8-(trifluoromethyl)quinolin-2-yl)amino)-3-(methyl-d3)-2-oxo-2,3-dihydro-1H-imidazo[4,5-c]pyridin-1-yl)cyclopentyl)carbamate]: the IC50 in assay [1] was ≤ 10 nM; in assay [2], > 1000 nM; in assay [3], > 1000 nM; in assay [4] it was ≤ 10 nM.
Consider `[2H]C([2H])([2H])n1c(=O)n([C@@H]2CC[C@@H](NC(=O)OC)C2)c2cc(Nc3cc(NS(C)(=O)=O)c4cccc(C(F)(F)F)c4n3)ncc21` [Example 23, Methyl ((1R,3R)-3-(3-(methyl-d3)-6-((4-(methylsulfonamido)-8-(trifluoromethyl)quinolin-2-yl)amino)-2-oxo-2,3-dihydro-1H-imidazo[4,5-c]pyridin-1-yl)cyclopentyl)carbamate], for which the IC50 in assay [1] is 10 to 100 nM; in assay [2] it was > 1000 nM; in assay [3] it was > 1000 nM; in assay [4] it was 10 to 100 nM.
Take `COC(=O)N[C@@H]1CC[C@@H](n2c(=O)n(C)c3cnc(Nc4ccc5cccc(Br)c5n4)cc32)C1` [Example 24, Methyl ((1R,3R)-3-(6-((8-bromoquinolin-2-yl)amino)-3-methyl-2-oxo-2,3-dihydro-1H-imidazo[4,5-c]pyridin-1-yl)cyclopentyl)carbamate]: the IC50 is ≤ 10 nM in assay [1], > 1000 nM in assay [2], > 1000 nM in assay [3] and ≤ 10 nM in assay [4].
